Assay results: patent publication US20150045425A1, “PELTATIN AND METABOLIC DISORDERS” (NESTEC S.A., priority 2012, published 2015)

System: HeLa cells
Assay: Cellular toxicity, standard method, compared to untreated cells
Format: cell-based, human
Settings: up to highest dose used
Description: The AC50 (upper part of the insert) and the maximum % activation (lower part of the insert) are given. Cellular toxicity was also assessed with standard method compared to untreated cells and shown in % of toxicity.
An edible plant fraction library was tested for PPARs agonist activity and toxicity. Then relevant plant fractions were further analyzed and bioactive(s) characterized and validated with the same hPPARa, hPPARg or hPPARd reporter bioassays. The reporter bioassay we used in order to identify anti-inflammatory plant properties targeted activation of human PPARs in human HeLa cells (as described in the FIG. 1). All isolated bioactives were tested in a dose response manner in duplicate. Assays were repeated 3-4 times. Shown are mean values obtained. Therefore specificity (for all the three known human PPAR receptors namely PPARa, PPARd and PPARg) and efficacy (full agonist i.e. % maximal activity >100% or partial agonist i.e. % maximal activity <100%) were tested (FIG. 2-4).

Measured: Cellular toxicity (% of toxicity)

COc1cc([C@@H]2c3cc4c(c(O)c3C[C@H]3COC(=O)[C@@H]32)OCO4)cc(OC)c1OC [beta-Peltatin]
no toxicity was observed: FIG. 2, PPARa activation dose-response | FIG. 3, PPARg activation dose-response | FIG. 4, PPARd activation dose-response
